Patent publication US20150057349A1 (NESTEC S.A., priority 2012, published 2015)

Tests used:
Nrf2 = Nrf2 reporter assay (ARE-luciferase) in AREc32 cells; format: cell-based; conditions: 24 hours
Description: Activation of Nrf2 was measured using an Nrf2 reporter assay. This assay is based on the AREc32 cell line, from CRX biosciences (Dundee, Scotland), a stably transfected MCF7 (breast adenocarcinoma) cell line that contains a luciferase gene construct under the control of the ARE. […] Anti-oxidative molecules such as Tert-butylhydroquinone (TBHQ) induce luciferase transcription via the activation of Nrf2 that binds to ARE. Luciferase activity is determined using a luciferase kit form Promega (Madison, Wis.). The luciferase activity is proportional to the activation of Nrf2. […] The luciferase activity and the cell viability (ATP measurements) were determined using the Luciferase and Cell Titer-Glo kits from Promega. For each run the luciferase activities, measured in Relative Light Units (RLU), of all the wells were normalized with the mean of the luciferase activity of the cells only of all the plates. […] For each sample the Nrf2 activation was calculated as follows: 1) The Nrf2 fold induction: The Nrf2 fold induction is very useful for screening purposes. […] The luciferase content per sample allows a semi quantification of the Nrf2 activation by reflecting the amount of the Nrf2 activating molecule. […] The cell viability was also measured using a cell Titer-Glo kit (ATP quantification).

AREc32 cells = assay: Cell viability of AREc32 cells (ATP quantification, Cell Titer-Glo); format: cell-based; conditions: 24 hours
Description: To determine the Nrf2 activation the samples were tested on AREc32 cells (seeded in 96 well plates) using 10 independent dilutions (½, ¼, ⅙, 1/10, 1/15, 1/20, 1/25, 1/30, 1/40 and 1/50) and incubated for 24 hours at 37° C. in a 5% CO2/air incubator. The luciferase activity and the cell viability (ATP measurements) were determined using the Luciferase and Cell Titer-Glo kits from Promega.
The cell viability was also measured using a cell Titer-Glo kit (ATP quantification).

NF-κB [1] = assay: NF-κB activity (SEAP and IL-8 production) in HT-29 clone 34 cells; format: cell-based, human
Description: The human colonic adenocarcinoma HT-29 clone 34 cell line (passage 42-50) are adherent cells stably transfected with a NF-κB/SEAP reporter plasmid. They were cultured in DMEM high glucose (4.5 g/L) (Invitrogen) containing 1% of stable L-glutamine and supplemented with 10% of heat inactivated (one hour at 56° C.) Foetal Calf Serum (FCS) (Bioconcept, Allschwil, Switzerland), 1% of Penicillin/Streptomycin (Sigma) and 500 μg/ml of Geneticin (PAA, Pasching, Austria) at 37° C. in a 5% CO2/air incubator. Culture medium was renewed every two days until the cell monolayer reached ˜90% confluence. Cells were sub-cultured using 1× Trypsin/EDTA (Sigma).
(§1) 10000 cells/well were seeded in 200 μl of culture medium in flat bottom white border 96 well plates (Greiner Bio One, Kremsmuenster, Austria). […] 20 μl of experimental medium containing (or not) LPS 055:B5 or rhTNF-α (100 and 10 ng/ml final, respectively) was added and the plates were incubated for 24 hours at 37° C. in a 5% CO2/air incubator.
Cell culture supernatants were then collected for measurement of NF-κB activity (determination of secreted alkaline phosphatase and IL-8 production) using Phosphalight (Applied Biosystems) and IL-8 singleplex (Meso Scale, Gaithersburg, Md.) kits, respectively.

HT-29 clone 34 cells = assay: Cell viability of HT-29 clone 34 cells (ATP, Cell Titer-Glo); format: cell-based, human; conditions: ATP measurement
Description: as §1
Cell viability was determined by measuring ATP using a Cell Titer-Glo kit (Promega). Briefly, remaining adherent HT-29 clone 34 cells were incubated for 10 min at room temperature under horizontal shaking (250 rpm) with 120 μl of Cell Titer-Glo reagent (pre-diluted twice in 1×PBS) and the luminescence was measured using Polarstar microplate reader (BMG, Offenburg, Germany) for 1000 ms with a gain value set to 3500.

NF-κB [2] = assay: NF-κB activity (secreted alkaline phosphatase) in THP-1 blue cells; format: cell-based, human; conditions: THP-1 blue cells stimulated with LPS
Description: Human monocytes/macrophages THP-1 blue cells (passage 16-20) (Invivogen, Toulouse, France) were cultured in modified RPMI medium (ATCC, Manassas, Va.) containing 1 mM of sodium pyruvate, 2 mM of L-glutamine, 4.5 g/L of glucose and 10 mM of HEPES supplemented with 10% of heat inactivated FCS (Bioconcept), 1% of Penicillin/Streptomycin (Sigma) and 500 μg/ml of Zeocin (Invivogen) at 37° C. in a 5% CO2/air incubator. 200000 cells/well were seeded in 100 μl of culture medium in 96 well flat bottom transparent plates. […] 20 μl of culture media containing (or not) LPS 055:B5 (Sigma) (100 ng/ml final) was added and the plates were incubated for 16 hours at 37° C. in a 5% CO2/air incubator. Cell culture supernatants were carefully transferred to 96 well-plates for NF-κB activity measurement which is proportional to the level of secreted alkaline phosphatase. Briefly, 100 μl of supernatants were mixed with 150 μl of QuantiBlue (Invivogen) in a 96 well-plates incubated for 3 h at 37° C. before OD measurements at 620 nm with Sunrise microplate reader (Tecan, Mannedorf, Switzerland). Cell viability was determined using Cell Titer-Glo kit as described above.

THP-1 blue cells = assay: Cell viability of THP-1 blue cells (Cell Titer-Glo); format: cell-based, human
Description: 200000 cells/well were seeded in 100 μl of culture medium in 96 well flat bottom transparent plates. […] 20 μl of culture media containing (or not) LPS 055:B5 (Sigma) (100 ng/ml final) was added and the plates were incubated for 16 hours at 37° C. in a 5% CO2/air incubator.
Cell culture supernatants were carefully transferred to 96 well-plates for NF-κB activity measurement which is proportional to the level of secreted alkaline phosphatase. Briefly, 100 μl of supernatants were mixed with 150 μl of QuantiBlue (Invivogen) in a 96 well-plates incubated for 3 h at 37° C. before OD measurements at 620 nm with Sunrise microplate reader (Tecan, Mannedorf, Switzerland). Cell viability was determined using Cell Titer-Glo kit as described above.

[3] = HT-29 clone 34 cells stimulated with LPS

`CC(=O)/C=C/C(=O)O` [4-oxo-2-pentenoic acid] was tested, and the “Nrf2 activation (in words)” value (Nrf2) was “strongly activate Nrf2 in a dose dependent manner”, the “Optimal dose of Nrf2 activation” value (Nrf2; dose range 0 to 200 μM) was 40 to 50 µM and the “Doses at which viability of AREc32 cells was not affected” value (AREc32 cells) was “lower than 70 μM”. The “Dose giving the best inhibition of SEAP and IL-8 secretion” value (NF-κB [1]; [3]) was 50 µM, the “Inhibition of NF-κB activity (in words)” value (NF-κB [1]; [3]) was “inhibits NF-κB activity in a dose dependent manner” and the “NF-κB activity (SEAP or IL-8) in the absence of LPS” value (NF-κB [1]; HT-29 clone 34 cells, no LPS, doses tested 3 to 400 μM) was “no NF-κB activity was observed”. The “Doses giving a decrease in cell viability of HT-29 clone 34 cells” value (HT-29 clone 34 cells) was greater than 50 µM, the “Doses giving strong NF-κB inhibition” value (NF-κB [2]) was 40 to 75 µM and the “Doses toxic to cells” value (THP-1 blue cells) was “higher than 75 μM”.
